According to publication PMC12386980, “Functional Analysis of NPC2 in Alarm Pheromone Recognition by the Red Imported Fire Ant, Solenopsis invicta (Formicidae: Solenopsis)” (Insects, 2025):

Assays:
SinvNPC2a [1] = biological target: T1, SinvNPC2a (Solenopsis invicta, UniProt Z9QIP2HJ34); assay: fluorescence competitive binding assay, 1-NPN displacement
T1 construct: recombinant from pET28a in E. coli BL21(DE3) pLysS, soluble, Ni-IDA purified

SinvNPC2a [2] = biological target: T1, SinvNPC2a; assay: as above; remark: listed apart in the source

T1 sequence (Z9QIP2HJ34 21-153 limits assumed): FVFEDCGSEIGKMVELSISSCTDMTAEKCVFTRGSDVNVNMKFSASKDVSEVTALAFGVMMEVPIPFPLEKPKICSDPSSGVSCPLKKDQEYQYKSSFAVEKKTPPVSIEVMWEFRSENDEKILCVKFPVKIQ

IC50 (SinvNPC2a [1]): 9.82 µM
Ki (SinvNPC2a [2]): 5.09 ± 1.51 µM
Compound: CCc1nc(C)cnc1C [EDMP, 2-ethyl-3,6-dimethylpyrazine]
